The values that follow come from patent US20240382485A1, “METHODS OF TREATING ABNORMAL CELL GROWTH” (Verastem, Inc., priority 2021, published 2024).

Common to all, as to test: 2D proliferation assay (CellTiter-Glo) with synergy analysis
Background: ATP-based viability assays read luminescence as a measure of living cells.

In assay [1] the test system is H358 human non-small cell lung cancer (NSCLC) cells. It counts as cell-based. To be noted: for effect of doxycycline or minocycline on anti-tumor potency: 2D culture, 7 days, CellTiter-Glo; for synergy with antibiotics in the inhibition of tumor cell proliferation: with doxycycline or minocycline, H358, FIG. 3, Bliss, Loewe, HSA and ZIP analysis. On the procedure: (§1) Anti-proliferative effects of an antibiotic agent such as doxycycline (e.g., 5 or 10 μM) or minocycline (e.g., 1.25 μM) in combination with VS-6766 (e.g., 40 nM) or defactinib (e.g., 1 μM) were tested in 2D culture in 3 different human tumor cell lines.
(§2) Human cancer cell lines were grown in 2D conditions. Briefly, cells were seeded in 100 μL of growth medium. After an overnight incubation (17-22 hours), cells were treated with VS-6766+/−minocycline or doxycycline for 7 days. Alternatively, cells were treated with defactinib+/−doxycycline for 7 days. Cell viability was measured using the cell viability CellTiter-Glo assay.
Raw data and metadata files were processed with a custom R-script for single agent and combination activity. Bliss, Loewe, Highest Single Agent (HSA) and ZIP synergy analysis were performed to generate a composite synergy score (e.g., see Malyutina A et al, “Drug combination sensitivity scoring facilitates the discovery of synergistic and efficacious drug combinations in cancer,” PLOS Computational Biology 15 (5): e1006752). Summary graphics and reports were saved for visualization and further analysis.
For example, consider that drug 1 at concentration x1 and drug 2 at concentration x2 were combined to produce the inhibition effect of yc, while their respective single drug effects were y1(x1) and y2(x2). The synergy score was calculated as the difference between yc and the expected effect ye if there is no synergy. Each synergy scoring takes a different model for ye: • 1. HSA: ye is the maximal single drug effect, defining
Dose-response matrices were used to assess anti-proliferative effects of the combination of VS-6766+/−minocycline or doxycycline, and the combination of defactinib+/−doxycycline. […] H358 human non-small cell lung cancer (NSCLC) cells were grown in 2D conditions. Cells were treated with VS-6766+/−minocycline or doxycycline for 7 days. Alternatively, cells were treated with defactinib+/−doxycycline for 7 days. Cell viability was measured using the cell viability CellTiter-Glo assay.
Synergy scores were calculated using a combination of 4 different methods (Bliss, Loewe, HSA and ZIP). Human cancer cell lines were run in a CTG proliferation assay. Raw data and metadata files were processed with a custom R-script for single agent and combination activity. Bliss, Loewe, Highest Single Agent (HSA) and ZIP synergy analysis were performed to generate a composite synergy score. The example used in this figure is VS-6766+doxycycline in H358 cells.
H358 human NSCLC cells were run in a CTG proliferation assay. Raw data and metadata files were processed with a custom R-script for single agent and combination activity. Bliss, Loewe, Highest Single Agent (HSA) and ZIP synergy analysis were performed to generate a composite synergy score. […]

Assay [2] has as its system H2122 NSCLC. The class given is cell-based, human. To be noted: VS-6766+doxycycline, H2122, FIG. 4; Bliss, Loewe, HSA and ZIP analysis. The procedure: as §1, §2
(§3) Raw data and metadata files were processed with a custom R-script for single agent and combination activity. Bliss, Loewe, Highest Single Agent (HSA) and ZIP synergy analysis were performed to generate a composite synergy score (e.g., see Malyutina A et al, “Drug combination sensitivity scoring facilitates the discovery of synergistic and efficacious drug combinations in cancer,” PLOS Computational Biology 15 (5): e1006752). […]
(§4) For example, consider that drug 1 at concentration x1 and drug 2 at concentration x2 were combined to produce the inhibition effect of yc, while their respective single drug effects were y1(x1) and y2(x2). The synergy score was calculated as the difference between yc and the expected effect ye if there is no synergy. […]

For assay [3], the system named is TOV21G ovarian cancer. The class given is cell-based, human. To be noted: VS-6766+doxycycline, FIG. 4, Bliss, Loewe, HSA and ZIP analysis. The procedure: as §1, §2, §3, §4

Turning to `CNS(=O)(=O)Nc1nccc(Cc2c(C)c3ccc(Oc4ncccn4)cc3oc2=O)c1F` [VS-6766], in assay [1], the “effect of doxycycline or minocycline on anti-tumor potency” value is listed as “increased anti-tumor potency” and the “synergy with antibiotics in the inhibition of tumor cell proliferation” value is “synergistic”. In assay [2], the “synergy in the inhibition of tumor cell proliferation” value is “synergistic effect”. Also, the “synergy in the inhibition of tumor cell proliferation” value in assay [3] is reported as “synergistic effect”.
As to `CNC(=O)c1ccc(Nc2ncc(C(F)(F)F)c(NCc3nccnc3N(C)S(C)(=O)=O)n2)cc1` [defactinib, reference compound], in assay [1], the “effect of doxycycline or minocycline on anti-tumor potency” value is reported as “increased anti-tumor potency” and the “synergy with antibiotics in the inhibition of tumor cell proliferation” value is reported as “synergistic”.
